Like-named read-outs stand apart in the source and are kept apart here.
Test: Apremilast in plasma by chiral LC/MS/MS, non-compartmental PK
Type: in vivo, human
Description: Urine was collected pre-dose, 0-4, 4-8, 8-12, 12-24 and every 24 h thereafter up to 216h (9 days) following dose administration and was stabilized with one volume of pH 1.5 Sorensen's citrate buffer (25-mM sodium citrate buffer adjusted to pH 1.5). Individual faecal samples were collected pre-dose and for up to 9 days following dose administration, and homogenized using approximately three volumes by weight of pH 1.5 Sorensen's citrate buffer. Blood (two 5-mL samples for plasma radioactivity counting, a 3-mL sample for whole blood radioactivity counting, a 2-mL sample for apremilast analysis and a 10-mL sample for metabolite profiling) was collected into heparinized tubes at pre-dose, 0.5, 1, 1.5, 2, 2.5, 3, 4, 6, 8, 12, 16, 24, 36, 48, 72, 96, 120, 144 and 168 h following dose administration. Blood samples collected for radioactivity counting were stored at or below -20°C until analysed. Plasma was harvested by centrifugation from all other blood samples. The plasma samples for apremilast analysis and metabolite profiling were mixed with an equal volume of pH 1.5 Sorensen's citrate buffer containing 20-μM amastatin. All urine, faecal homogenates and plasma samples were stored at or below -20°C until analysed.
Plasma concentrations of apremilast were determined using a Chiral liquid chromatography with tandem mass spectrometry (LC/MS/MS) assay validated for concentrations between 1.00 and 1000ng/mL, with quality control (QC) samples prepared at 3.00, 50.0 and 750 ng/mL. Apremilast and (3S-cis)-(+)-tetrahydro-3,7a-diphenylpyrrolo[2, 1-b] oxazol-5(6H)-one (internal standard; IS) were extracted from 50 μL of plasma (stabilized with 50-μL Sorenson's citrate buffer) using liquid-liquid extraction with methyl tertiary butyl ether. The aqueous layer was frozen and the solvent layer was transferred to a new tube. The solvent was evaporated, the samples were reconstituted and injected for LC/MS/MS analysis using a Chiral AGP (150×4.0mm, 5 μm; Chrom Tech, Inc., Apple Valley, MN) analytical column. Positive ions were measured in the multiple reaction monitoring (MRM) mode using a Sciex API-4000 tandem mass spectrometer equipped with a Turbo IonSpray source with precursor→product ion pairs of 461.0→177.9 for apremilast and 280.1→160.3 for IS. For the QC samples, the accuracy ranged from 87.5% to 106.7%.
Pharmacokinetic data were generated by non-compartmental analysis of plasma or whole blood versus time profiles using WinNonlin (version 4.1, Enterprise Edition). For individual subjects, the peak concentration (Cmax), time to Cmax (Tmax), area under the concentration versus time curve from time zero to the last quantifiable concentration (AUC0-t), area under the concentration versus time curve from time zero to infinity (AUC0-∞ and the apparent terminal elimination half-life (t½) were determined. AUC0-t) and AUC0-∞ were calculated using the linear trapezoidal rule. AUC0-∞ was calculated as the sum of […], where Clast, is the last observed quantifiable concentration.

CCOc1cc([C@@H](CS(C)(=O)=O)N2C(=O)c3cccc(NC(C)=O)c3C2=O)ccc1OC [Apremilast, (+)-N-[2-[(lS)-1-(3-ethoxy-4-methoxyphenyl)-2-(methylsulfonyl)ethyl]-1,3-dioxo-2,3-dihydro-lH-isoindol-4-yl]acetamide]
Plasma t½ (chiral LC/MS/MS assay, single oral 20-mg dose, mean ± SD): 6.8 ± 2.6 h
half-life (male, human, plasma, po, 20 mg, chiral LC/MS/MS assay, single oral 20-mg dose, mean ± SD, read-out: Plasma t½ (converted)): ~7 h
AUC (male, human, plasma, po, 20 mg, single oral 20-mg dose, read-out: AUC determined via LC/MS): 1910 ± 339 ng·h/mL
AUC (male, human, plasma, po, 20 mg, single oral dose 20 mg, 100 uCi, read-out: Mean AUC0 in plasma): 1970 ng·h/mL
AUC(0-t) (male, human, plasma, chiral LC/MS/MS assay, single oral 20-mg dose, mean ± SD, read-out: Plasma AUC0-t): 1910 ± 339 ng·h/mL
AUC(0-inf) (male, human, plasma, chiral LC/MS/MS assay, single oral 20-mg dose, mean ± SD, read-out: Plasma AUC0-∞): 1970 ± 343 ng·h/mL
Tmax (male, human, plasma, chiral LC/MS/MS assay, single oral 20-mg dose, median and range): < 2 h
Cmax (male, human, plasma, single oral dose 20 mg, 100 uCi): 333 ng/mL

Source: paper PMC3231940, “Disposition, metabolism and mass balance of [^14C]apremilast following oral administration” (Xenobiotica; the Fate of Foreign Compounds in Biological …, 2011)
